Assay results from PubChem BioAssay AID2823 (Broad Institute, 2010).
Calls of active or inactive are those of the source. The rule behind the calls is not given here.

molecular target: RanGTP-importin-beta complex (human Ran / KPNB1); experiment: Ran–importin-beta interaction inhibitors, confirmation, biochemical, FRET, CFP/YFP, cell-free homogeneous (AID 2823); conditions: CFP-Ran/YFP-importin-beta FRET ratio

| Compound | IC50 |
| --- | --- |
| C/C(=C\C(=O)C(F)(F)F)Nc1ccc(C(F)(F)F)cc1 | > 50 µM (inactive) |
| CCN(CC)Cc1c(CC(C)C)oc(C)c1C(=O)O | > 50 µM (inactive) |
| CN1CCCN(Cc2cccc3ccccc23)CC1 | > 50 µM (inactive) |
| Cc1cc(NC(=O)c2c(F)c(F)c(F)c(F)c2F)no1 | > 50 µM (inactive) |
| O=C(/C=C/c1cccs1)Nc1ccc([N+](=O)[O-])cc1 | > 50 µM (inactive) |
| COc1cc(S(=O)(=O)NCCCN2CCOCC2)ccc1Cl | > 50 µM (inactive) |
| Cc1ccc(Cl)cc1-n1c(=O)cc(N2CC(C)OC(C)C2)[nH]c1=O (configuration not stated) | > 50 µM (inactive) |
| Cc1cc(C(=O)N2CCc3c([nH]c4ccccc34)C2c2c(F)cccc2Cl)no1 (configuration not stated) | > 50 µM (inactive) |
| CCOC(=O)/C(C#N)=C/c1ccc(N2CCN(C)CC2)cc1 | 16 µM |
| Cc1ccc2cc(CN(CC3CCCO3)C(=S)Nc3ccccc3)c(=O)[nH]c2c1C (configuration not stated) | > 50 µM (inactive) |
| Cc1c(Cl)c([N+](=O)[O-])nn1CCCC(=O)Nc1sc2c(c1C(N)=O)CCC(C)C2 (configuration not stated) | > 50 µM (inactive) |
| CC(=O)c1c(N2CCN(C)CC2)nc(=S)n(-c2cc(C)ccc2C)c1C | > 50 µM (inactive) |
| CNC(=O)c1cc2c(ccc3ccccc32)oc1=N | 5.26 µM |
| O=c1cc(N2CCc3ccccc3C2)[nH]c(=O)n1C1CCCCC1 | > 50 µM (inactive) |
| CC(C)S(=O)(=O)c1nsc2nc(=O)c(/C=C3\C=Nc4ccccc43)c(N)n12 | 7.97 µM |
| O=[N+]([O-])c1ccc(CNC2CCCc3ccccc32)cc1 (configuration not stated) | > 50 µM (inactive) |
| Cc1c(CC(=O)N2CCN(C(=O)C3COc4ccccc4O3)CC2)c(=O)oc2cc(O)c(Cl)cc12 (configuration not stated) | 4.84 µM |
| O=C(O)Cn1cc(/C=C2/SC(=O)N(CC(=O)N3CCCCCC3)C2=O)c2ccccc21 | 44.1 µM |
| O=C(CN1C2CCCC1CC(NC(=O)c1ccco1)C2)Nc1ccccc1C(F)(F)F (configuration not stated) | > 50 µM (inactive) |
| COc1ccc(/C=C2\SC(=S)N(CC(=O)OCC(=O)Nc3ccc(C)cc3Cl)C2=O)cc1 | > 50 µM (inactive) |
| N#Cc1c(N)[nH]c(=S)c(C#N)c1-c1ccccc1 | > 50 µM (inactive) |
| CCCn1c(O)c(C=Nc2ccccc2)sc1=S | 39.4 µM |
| Cc1[nH]c2ccccc2c1/C=C/c1nc2ccccc2c(=O)n1CCO | > 50 µM (inactive) |
| Cc1c(CCC(=O)NC2CC2)c(=O)oc2c(C)c(O)ccc12 | 20.8 µM |
| O=C(NCc1ccccc1C(F)(F)F)C1CC(c2ccc(C(F)(F)F)cc2)=NO1 (configuration not stated) | > 50 µM (inactive) |
| CCN(CC)Cc1c(O)ccc2c(C)c(CC(=O)OC)c(=O)oc12 | 14 µM |

| Compound | IC50 |
| --- | --- |
| O=C(Cn1c(=O)c2cccn2c2cccnc21)NCCCN1CCN(c2ccc(F)cc2)CC1 | > 50 µM (inactive) |
| CCOc1ccc(C(=O)c2cc3ccc(O)cc3oc2=O)cc1 | 9.4 µM |
| COC(=O)CCC(=O)OC1(C)C(=O)C=C2C=C(C3CC3)N(Cc3ccc(OC)cc3)C=C2C1=O (configuration not stated) | 26.7 µM |
| OCCNc1nc(-c2ccccc2)nc2ccccc12 | > 50 µM (inactive) |
| Cc1cc(C(=O)O)ccc1-c1ccc(/C=C2\NC(=O)N(Cc3ccccc3Cl)C2=O)o1 | 10.7 µM |
| Cc1ccc(-n2c(=O)c(C#N)cc3c(=O)n4ccccc4nc32)cc1C | > 50 µM (inactive) |
| Cn1c2ccccc2c(=O)c2ccc(F)cc21 | 12.6 µM |
| Cc1ccc(OCC(=O)NNc2c3ccccc3nc3ccccc23)cc1 | > 50 µM (inactive) |
| COc1ccc(N2C(=O)N3[C@H](c4ccc(Br)cc4)[C@@H]4C(=O)N(C(C)(C)C)C(=O)[C@@H]4[C@]3(Cc3ccccc3)C2=O)cc1 | > 50 µM (inactive) |
| CCc1ccc(CNc2ccc3c(c2)ncn3CC)cc1 | > 50 µM (inactive) |
| CCOC(=O)/C=C1\SCC(=O)N1CC(=O)c1ccc[nH]1 | > 50 µM (inactive) |
| CCN(Cc1ccccc1)C(=O)CN1C(=O)NC(CC)(c2ccc(F)cc2)C1=O (configuration not stated) | > 50 µM (inactive) |
| Oc1ccc(/C=N/Nc2ccc3ccccc3c2)c(O)c1 | > 50 µM (inactive) |
| O=c1cc(CN2CCN(S(=O)(=O)c3ccc4c(c3)OCCO4)CC2)c2ccc(O)cc2o1 | 10.9 µM |
| CCCCc1cc(-c2n[nH]c(=S)o2)c2ccccc2n1 | > 50 µM (inactive) |
| N#C/C(=C\c1ccc(-c2ccc(F)cc2)o1)C(=O)Nc1nc(-c2cccs2)cs1 | > 50 µM (inactive) |
| NC(N)=N/N=C/c1ccc(N(c2ccccc2)c2ccccc2)cc1 | 16.8 µM |
| O=C(COC(=O)c1ccc2ccccc2c1)NCCCc1ccccc1 | > 50 µM (inactive) |
| COc1ccc(OC)c(Nc2c3ccccc3nc3ccccc23)c1 | > 50 µM (inactive) |
| COc1cc(NC(=O)c2cc(-c3cccs3)on2)cc(OC)c1OC | > 50 µM (inactive) |
| Cc1ccccc1-n1nc2c(c1NC(=O)c1cc3ccccc3oc1=O)CS(=O)(=O)C2 | > 50 µM (inactive) |
| COc1ccc(C(=O)NCCNc2nc3c(C)cccc3cc2C#N)cc1 | 24.4 µM |
| CCCc1c2ccccc2nc2ccccc12 | 8.26 µM |
| CCCc1cc(=O)oc2c(CN(CC)CC)c(O)c(Cl)cc12 | 43.4 µM |
| CCN1CCc2nc(NC(=O)CC(c3ccccc3)c3ccccc3)sc2C1 | 23.2 µM |
| COc1ccc(-c2cc(C(=O)O)nc3ccc4ccccc4c23)cc1OC | > 50 µM (inactive) |

| Compound | IC50 |
| --- | --- |
| N#Cc1c(N)nc2c(c1-c1ccccc1)CCC2 | 14.3 µM |
| COc1ccc(CCNC(=O)c2cc3c(=O)n4ccccc4nc3n(CC3CCCO3)c2=N)cc1OC (configuration not stated) | 21.3 µM |
| N#Cc1cc2cc3c(cc2nc1N1CCOCC1)OCO3 | 12.2 µM |
| O=C(c1cc2c(=O)n3ccccc3nc2s1)N1CCN(c2cccc(Cl)c2)CC1 | > 50 µM (inactive) |
| COc1ccc(-n2c(N)c(C(=O)NCc3ccco3)c3nc4ccccc4nc32)cc1OC | 45.6 µM |
| CCOC(=O)c1c(NC(=O)c2cccc(N3C(=O)CCC3=O)c2)sc2c1CCN(CC)C2 | > 50 µM (inactive) |
| CC1=NN(C(=O)Cn2nc([N+](=O)[O-])cc2C)C(O)(C(F)(F)F)C1 (configuration not stated) | > 50 µM (inactive) |
| Cc1[nH]nc2c1C(c1ccoc1)C(C#N)=C(N)O2 (configuration not stated) | > 50 µM (inactive) |
| Cc1cc2c(c(=O)n1CC1CCCO1)C(c1ccco1)C(C#N)=C(N)O2 (configuration not stated) | 20.9 µM |
| COC(=O)c1ccc(NC(=O)C(=O)N2CCN(C(=S)Nc3ccccc3OC)CC2)cc1 | > 50 µM (inactive) |
| Cc1cccc(C)c1OCC(=O)OC/C(O)=C(\C#N)c1nc2ccccc2[nH]1 | > 50 µM (inactive) |
| CCN(CC)CCCNC(=S)N(Cc1cccs1)Cc1cc2cc3c(cc2[nH]c1=O)OCCO3 | > 50 µM (inactive) |
| CC(=O)Oc1cc2oc(=O)cc(C)c2cc1OC(C)=O | 24.7 µM |
| Cc1oc2cc(O)ccc2c(=O)c1-c1nncn1-c1ccccc1 | 32.3 µM |
| CCc1ccc(-c2nc(CSCC(=O)N3CCN(c4ccccn4)CC3)c(C)o2)cc1 | > 50 µM (inactive) |
| NS(=O)(=O)c1ccc(CCNC(=O)C(=O)c2c[nH]c3ccccc23)cc1 | > 50 µM (inactive) |
| CCCCn1c(NC(=O)c2ccc(Br)o2)c(S(=O)(=O)c2ccccc2)c2nc3ccccc3nc21 | 4.83 µM |
| NC(=O)c1sc2nccc(Nc3ccccc3)c2c1N | > 50 µM (inactive) |
| Cc1ccc(-c2nc3cc(N)ccc3o2)cc1 | > 50 µM (inactive) |
| O=C(c1ccc(Br)cc1)c1cc2ccc(O)cc2oc1=O | 19.2 µM |
| COCCNC(=O)c1cnn2c(C(F)F)cc(-c3ccc(C)cc3)nc12 | 37.8 µM |
| Cc1cc(C(=O)COC(=O)c2nc3nccc(C)n3n2)c(C)n1CC1CCCO1 (configuration not stated) | > 50 µM (inactive) |
| O=c1cc(N2CCC(Cc3ccccc3)CC2)[nH]c(=O)n1C1CCCCC1 | > 50 µM (inactive) |
| COCC(=O)Nc1nnc(COc2ccc(Cl)cc2)s1 | > 50 µM (inactive) |
| Cc1cccc(NC(=O)c2cc(S(=O)(=O)N(C)c3ccc(F)cc3)ccc2Cl)n1 | > 50 µM (inactive) |
| Cc1sc(NC(=O)c2oc3ccccc3c2C)c(C#N)c1C | > 50 µM (inactive) |

| Compound | IC50 |
| --- | --- |
| CCOC(=O)C1=C(C)NC2=C(C(=O)C(C(=O)OCC)C(c3ccc(OC)cc3)C2)C1c1ccccn1 (configuration not stated) | 28.4 µM |
| Cc1cc(/C=C2\C(=O)NC(=O)N(c3ccc(F)cc3)C2=O)c(C)n1-c1ccc(C(=O)O)cc1 | > 50 µM (inactive) |
| O=C(O)c1ccccc1P(=O)(c1ccccc1)c1ccccc1 | > 50 µM (inactive) |
| O=C(NNc1c2ccccc2nc2ccccc12)c1ccc(Cl)cc1 | > 50 µM (inactive) |
| N#Cc1c(/N=C/c2ccc(O)cc2O)sc2c1C1CCN2CC1 | > 50 µM (inactive) |
| O=c1[nH]c(Nc2ccccn2)cc2ccccc12 | > 50 µM (inactive) |
| Cc1c(/C=N\NC(=O)C2COc3ccccc3O2)c2ccccc2n1C (configuration not stated) | > 50 µM (inactive) |
| C=CCNC(=O)c1cccc(OC2CCN(CC(C)(C)C)CC2)c1 | > 50 µM (inactive) |
| Cc1ccc(C2NC(=O)c3c(sc(C)c3C)N2)c(O)c1 (configuration not stated) | > 50 µM (inactive) |
| CCOC(=O)N1CCN(/C=C(\C#N)c2nc3ccccc3s2)CC1 | > 50 µM (inactive) |
| CCN(C(=O)c1c(C)cc(=O)oc1C)c1ccc2c(c1)OCO2 | > 50 µM (inactive) |
| C=CCn1c(O)c(C(C)=NCCc2ccccc2)c(=O)[nH]c1=O | > 50 µM (inactive) |
| Cc1ccc2nc(N3CCN(C(=O)c4cccs4)CC3)c(C#N)cc2c1 | 17.7 µM |
| Cc1c(O)c(CN2CCCCC2)cc2c3c(c(=O)oc12)CCC3 | 9.04 µM |
| COc1ccc(-n2c(C)cc(/C=C3/SC(=S)N(C)C3=O)c2C)cc1 | > 50 µM (inactive) |
| COCCNC(=O)/C(C#N)=C/c1cn(CC(=O)NCc2ccco2)c2ccccc12 | 40.4 µM |
| COc1ccccc1C1C(C(N)=O)=C(C)Nc2ncnn21 (configuration not stated) | > 50 µM (inactive) |
| CCc1c(C)c2cc(Cl)c(O)c(CN3CCCCC3)c2oc1=O | 22.9 µM |
| COc1ccc(CCNc2c3ccccc3nc3ccccc23)cc1OC | 12.5 µM |
| CCCCc1c(C)c(C#N)c2nc3ccccc3n2c1Nc1c(C)n(C)n(-c2ccccc2)c1=O | 45 µM |
| Cc1cc(C2C(C#N)=C(N)SC(N)=C2C#N)c(C)s1 | > 50 µM (inactive) |
| CN(C)CCCN(C(=O)c1ccc(Br)s1)c1nc2cc3c(cc2s1)OCCO3 | > 50 µM (inactive) |
| CC(=O)c1cccc(OCC(=O)N(C)CC(=O)Nc2ccc(F)cc2)c1 | > 50 µM (inactive) |
| NNC(=O)c1cc2nc(-c3cccs3)cc(C(F)(F)F)n2n1 | > 50 µM (inactive) |
